Test results reported in patent US10231992B2, “Antioxidant composition” (priority 2010, dated 2019).

Columns and labels:
[1] = tested on: reactive oxygen metabolites (ROMs) in human fibroblasts; assay: Intracellular ROM quantification with 2',7'-dichlorofluorescein diacetate probe in oxidized fibroblasts; assay type: cell-based; conditions: 1 mM H2O2; for F.U. (fluorescence units) / % decrease of ROS: 1% LBG, 5 mM NAC, 5 μM Turmeric; for F.U. (fluorescence units): fluorescence at 538 nm, 20 minutes after the start of the oxidation; for % decrease of ROS: with respect to the oxidized control
Experimental: To quantify the ROM-decreasing or antioxidant capacity of LBG, NAC and turmeric, the production of the ROMs generated upon oxidizing a culture of fibroblasts with a high concentration of hydrogen peroxide was measured.
The intracellular ROMs were quantified by means of the labeling thereof with the fluorescent probe 2′,7′-dichlorofluorescein diacetate (Molecular Probes D399). This probe is capable of emitting fluorescence at 538 nm when it is oxidized with reactive oxygen metabolites. The cell oxidation was carried out with 1 mM hydrogen peroxide.
The day before the assay, the fibroblasts were seeded in a 96-well plate at a density of 11500 cells per well. All the assays were performed in triplicate.
The treatments were prepared on the day of the experiment and the hydrogen peroxide was added just before the assay.
A solution of locust bean gum of 1% in distilled water was prepared and heated above 100° C. until completing dissolution of the gum.
The solution was then centrifuged for 20 minutes at 4000 rpm to remove the impurities from the mixture. The solution of the locust bean gum was lyophilized. The lyophilisate was dissolved in cell growth medium (DMEM+10% FBS) at a concentration of 1%.
Before adding the treatments and the hydrogen peroxide, the cells were labeled with the fluorescent probe at a concentration of 50 μM for 30 minutes in darkness.
The NAC and Turmeric treatments and the hydrogen peroxide were prepared just before starting the assay. To prepare the turmeric stock, it is necessary to know the purity of the Turmeric batch available and readjust the calculation to add the necessary concentration.
After labeling the cells, the antioxidant treatments and the hydrogen peroxide were added.
The fluorescence emitted at 538 nm by the probe was collected 20 minutes after the start of the oxidation.
However, in this case the decrease in intracellular ROM levels was taken as a reference with respect to the oxidized control.

human fibroblasts = assay: MTT cytotoxicity and proliferation assay, limit concentrations of NAC and turmeric; assay type: cell-based
Experimental: The proliferation assay was carried out using the MTT colorimetric assay (Roche 11465007001). MTT is a yellow tetrazolium salt which forms formazan crystals in active cells. The formazan crystals are solubilized and the resulting color is quantified by means of spectrophotometry at 550 nm. […] The cells were maintained at 37° C. in an incubation stove. The following day, the treatments of NAC and Turmeric were added to the cell culture using a volume of 200 μL per well. The cell culture was left to incubate for 24, 48 and 72 hours. After each incubation time, 20 μL of MTT (a final concentration of 0.5 mg/mL) were added to each well. The plate was maintained for 4 hours in the incubation stove in order to allow the formation of formazan crystals. Subsequently, 100 μL of solubilizer was added to each well and the plate was left in the incubation stove until the following day.

| Compound | intracellular ROM levels [1] | F.U. (fluorescence units) [1] | % decrease of ROS [1] [%] | IC50 (concentration causing a 50% cell decrease with respect to the control) (human fibroblasts; NAC studied from 0.5 mM to 20 mM, 72 hours) | proliferative rate in the fibroblasts (human fibroblasts; concentrations of 1 and 5 mM) | cell proliferation with respect to the control (human fibroblasts; concentrations of 10 and 20 mM) | maximum limit of concentration (human fibroblasts; toxicity limit from MTT assay) [mM] | IC50 (human fibroblasts; Homo sapiens, Fibroblast, 72 h, read-out: IC50 (concentration causing a 50% cell decrease with respect to the control)) [µM] | toxicity (human fibroblasts; concentration of 10 μM) | toxicity (human fibroblasts; concentrations of 1 and 5 μM) | toxicity (human fibroblasts; concentrations of 20 and 50 μM) | maximum limit of use in the mixture (human fibroblasts; toxicity limit from MTT assay) [µM] |
| --- | --- | --- | --- | --- | --- | --- | --- | --- | --- | --- | --- | --- |
| CC(=O)N[C@@H](CS)C(=O)O [NAC, N-acetyl cysteine, reference compound] | significant decrease of the intracellular ROM levels | 1.82 | 85 | none of the concentrations studied reached IC50 | improvement of the proliferative rate | progressively reduced cell proliferation | 10 | – | – | – | – | – |
| COc1cc(/C=C/C(=O)/C=C(O)/C=C/c2ccc(O)c(OC)c2)ccc1O [Turmeric, curcumin] | significant decrease of the intracellular ROM levels | 2.31 | 81 | – | – | – | – | 7.5 | exceeds the limit at 72 hours | no toxic effects were observed | toxicity from the first 24 hours, exceeding the IC50 limit | 7.5 |
